The record followed here is US10149907B2, “Combinations of a photosensitizer with a hydrogen sulfide donor, thioredoxin inhibitor or nitroxide for use in photodynamic therapy” (UNIVERSITY OF EXETER, priority 2014, dated 2018).

Molecules are shown by their SMILES. “And” between values parts separate entries of the source, which are not always exact repeats. Identical values can stand only once. “Also recorded” adds a separate entry of the source. Like-named read-outs stand apart in the source and are kept apart here.

Series [1] deals with A431 cells. The experiment in a line: Mitochondrial reactive oxygen species generation during photodynamic irradiation, MitoSOX flow cytometry. The settings on record: 3 hours, irradiated. The series is classed as cell-based, human. As for the experimental part: A431 cells were treated concurrently with AP39-C10 (10, 100 or 1000 nM) for 5 hours, MAL (1 mM) for 3 hours and MitoSOX (2.5 μM) for 1 hour, after which they were irradiated for 5 min (630 nm, 25 J/cm^2) and MitoSOX (mito-2-OH-E^+) fluorescence, indicative of mitochondrial oxidant production, was immediately analysed by flow cytometry. Results are set out in FIG. 23.
Mitochondria-targeted dihydroethidium (i.e. MitoSOX) was used to assess the production of mitochondrial reactive oxygen species (ROS) by PpIX photochemical reactions and to determine the effects of AP39-C10 on this process. All of the results are represented as a percentage of the untreated controls (100.0±8.5%). The fluorescence of the photoirradiated cells, which had been pre-treated with MAL, was 193.7±7.3% (p<0.001 c.f. untreated controls).
For orientation: A flow cytometer gives signals particle by particle.

Series [2] concerns A431 cells. The experiment in a line: MAL-induced PpIX accumulation, fluorescence plate reader. The series is classed as cell-based, human. The settings on record: for PpIX accumulation, percentage of the MAL alone treatment: FIG. 38; for effect on PpIX fluorescence: 0.01 mM + 1 mM MAL; for increase in PpIX fluorescence: 1 mM + 1 mM MAL.
Series [3] relates to A431 cells. As for the experimental part:
A431 cells were seeded at a density of 1×10^5 cells/ml in 96 well plates and incubated under 2% O2 for 48 h prior to treatment. After 24 h, the culture medium was replaced and the cells were placed back into the incubators under 2% O2. Following this incubation period, the culture medium was then removed and the plates were washed with PBS. The cells were then treated with 1 mM MAL in the absence or presence of one of the compounds of interest and then incubated again at 2% O2 for 3 h. For experiments carried out with SRHDs, this treatment step was carried out for 5 h at 2% O2. After treatment, the cells were washed with PBS, the culture medium was replaced and the cells were placed back under 2% O2 for 3 h. Following this final incubation, cell death was analysed using the resazurin viability assay.
Resazurin (7-hydroxy-3H-phenoxazin-3-one 0-oxide) is a weakly fluorescent blue dye used primarily in oxidation-reduction cell viability assays. Irreversible NADH-dependent reduction by the mitochondria in mammalian cells leads to the production of resorufin, a highly fluorescent product with excitation at 571 nm, emission at 585 nm.
A431 cells were seeded into 96 well plates at a density of 1.5*10^6 cells per ml (200 μl per well, 3*10^5 cells) and incubated for 24 h to adhere. Following incubation, the cells were washed and treated with the compound of interest for the relevant time, and then washed with PBS. […] After a 2 h incubation, the fluorescence of each well was measured (excitation: 571 nm, emission: 585 nm) using a fluorescence plate reader. Data from these experiments was plotted as a percentage of cell viability compared to untreated control cells.

The subject of series [4] is A431 cells. The experiment in a line: Photodynamic cell killing in the presence of inhibitors of the thioredoxin antioxidant system or nitroxides (annexin V-FITC/propidium iodide flow cytometry). The series is classed as cell-based, human. Particulars: for cell death: 3 h, irradiation; for potentiating effect on MAL photodynamic cell killing: summary of Examples 2A, 3A. As for the experimental part: After this treatment, the cells were irradiated for 5 min (630 nm, 25 J/cm^2), then washed with PBS and the culture medium was replaced, after which the cells were placed back under 2% O2 and incubated for a further 3 h. Following this final incubation, cell death was analysed by annexin V-FITC and propidium iodide staining in conjunction with flow cytometry.
Cell death analysis by flow cytometry was carried out using the annexin V-FITC/propidium iodide protocol. This protocol allows a quantitative assessment of cell death, particularly specific modes of death, and involves staining the cells with fluorescein isothiocyanate-conjugated annexin A5 (annexin V-FITC) and propidium iodide (PI). Positive staining with annexin V-FITC alone indicates an apoptotic cell; positive staining with PI alone indicates a necrotic cell and dual staining of both annexin V and PI indicates a “late apoptotic” cell.
From each flask being assessed, the old medium was removed and placed into a corresponding individual 15 ml Falcon tube in order to collect any cells that may have detached from the surface. The flask was washed once with 1 ml PBS; also deposited in the Falcon tubes. Trypsin (500 μl) was added to each flask and the flasks were returned to the incubator with their caps loosened. Cell detachment was monitored using an inverted light microscope, until 50% of the cells were detached. The flasks were then lightly tapped to detach the remainder of the cells. Medium (2 ml) was added to each flask in order to neutralise the trypsin present before being removed and dispensed into the Falcon tubes. One more wash with PBS was carried out in order to ensure any cells left in the flasks were collected. The Falcon tubes were then centrifuged at 490 g for 3 min, forming a pellet at the bottom of the tube. The supernatant was discarded, and the cells were re-suspended in 5 ml of PBS, in order to wash them, before being centrifuged again at 490 g for 3 min. The wash stage was carried out once more before re-suspending the cell pellet in 95 μl of ice cold calcium (Ca^2+) buffer (50 mM HEPES, 700 mM NaCl, 12.5 mM CaCl2, pH 7.4) and adding 5 μl 12.5 μg/ml of annexin V-FITC (final concentration, 1.25 μg/ml), under reduced light conditions to prevent bleaching of the FITC. The Falcon tubes were placed on ice and in the dark for 15 min to allow annexin V staining. After 15 min, 860 μl of Ca^2+ buffer (10 mM Hepes adjusted to pH 7.4, 140 mM NaCl and 2.5 mM CaCl2) was added, followed by 40 μl of 1 mg/ml PI in water (final concentration, 0.04 mg/ml) to give a final volume of 1 ml. The samples were then ready to be assessed by flow cytometry.
The following flow cytometry process of sample detection was used. When using annexin V-FITC and PI, the detectors being used were FL1 (λmax=520 nm) and FL3 (λmax=670 nm), respectively, each with their own logarithmic histogram generated by the software. The intensity of the fluorescence detected is measured on a logarithmic scale on the x-axis and the y-axis represents the number of cells detected at a given fluorescence intensity. A plot of FL1/FL3 produces a 4-quadrant graph, where unstained and untreated cells are located in the bottom left quadrant, representing any cells found in the 1st decade of the single plot logarithmic histograms. Single staining with annexin V-FITC and PI are located in the bottom right and top left quadrant, respectively, and dual staining is located in the top right quadrant. These quadrants represent any cells detected above the 1st decade of the logarithmic histograms.

Setting [5] is: MAL 1 mM + co-treatment 1 mM (1000 μM).
Where [6] appears, read: 1 mM MAL + co-treatment 1 mM (1000 μM).
Setting [7] is: 1 mM MAL + nitroxide 1 mM (MitoTEMPO 50 μM) + irradiation, FIG. 13, 34.

On to `CC1(C)CCCC(C)(C)N1[O]` [TEMPO, 2,2,6,6-tetramethyl-1-piperidinyloxy], for which the “MitoSOX fluorescence, percentage of untreated cells” value (“MitoSOX fluorescence, percentage” below) in the series on A431 cells [1] (setting [5]) is on record as 418.8±6.3%. In addition, the “PpIX accumulation, percentage of the MAL alone treatment” value (from here on “PpIX accumulation, percentage”) in the series with A431 cells [2] (10 μM + MAL 1 mM, 3 hours) was determined as 100.3±3.8%; in the series on A431 cells [2] (100 μM + MAL 1 mM, 3 hours) it was 127.0±3.3%; with A431 cells [2] (1000 μM + MAL 1 mM, 3 hours), 159.2±4.1%. Also, the “effect on PpIX fluorescence” value with A431 cells [2] (3 h) is “increased PpIX fluorescence slightly, but this was not statistically significant”. Also, the “increase in PpIX accumulation compared to MAL alone” value with A431 cells [2] (50 μM + MAL 1 mM, 3 hours, FIG. 35) was determined as 0.0±4.9%. In the series on A431 cells [2] (3 h), the “increase in PpIX fluorescence” value was roughly 2 fold. In addition, the “peak response, increase in PpIX accumulation compared to MAL alone” value with A431 cells [2] (peak at TEMPO 5 mM, MitoTEMPO 100 μM, CP94 100 μM, MAL 1 mM, 3 hours) is recorded as 138.1±10.5%. The “cell viability, percentage of untreated control” value (“cell viability, percentage” below) with A431 cells [3] (0.25 mM with 1 mM MAL, 3 hours) is listed as 97.8±3.4%; with A431 cells [3] (0.5 mM with 1 mM MAL, 3 hours), 97.5±1.7%; in the series on A431 cells [3] (1 mM with 1 mM MAL, 3 hours), 98.6±6.8%; in the series on A431 cells [3] (2 mM with 1 mM MAL, 3 hours), 97.4±6.2%; in the series with A431 cells [3] (5 mM with 1 mM MAL, 3 hours), 92.9±6.6%; in the series with A431 cells [3] (10 mM with 1 mM MAL, 3 hours), 79.9±8.5%. The “cell viability, percentage” value in the series on A431 cells [3] (10 mM, 24 hours) was 64.9±0.1%; with A431 cells [3] (50 mM, 24 hours) it was 8.5±0.2%. Moreover, the cell death with A431 cells [4] (setting [6]) is 52.0±8.3% and 46.3±3.6%. Also, the “modes of cell death” value in the series on A431 cells [4] (setting [7]) was “an increase in apoptotic and late apoptotic cell death; also recorded: a further increase in late apoptosis and necrosis with little effect on apoptotic cell death”. The “potentiating effect on MAL photodynamic cell killing” value (from here on “potentiating effect”) in the series on A431 cells [4] is listed as “more robust potentiating effect”.

With `CC1(C)CC(=O)CC(C)(C)N1[O]` [TEMPONE], in the series on A431 cells [1] (setting [5]), the “MitoSOX fluorescence, percentage” value is given as 226.4±6.8%. The “PpIX accumulation, percentage” value in the series on A431 cells [2] (10 μM + MAL 1 mM, 3 hours) worked out at 100.3±4.0%; in the series with A431 cells [2] (100 μM + MAL 1 mM, 3 hours), 123.8±2.5%; in the series on A431 cells [2] (1000 μM + MAL 1 mM, 3 hours), 160.2±3.2%. For the same molecule, the “cell viability, percentage” value with A431 cells [3] (10 mM, 24 hours) was determined as 80.3±13.3%; with A431 cells [3] (50 mM, 24 hours), 53.7±13.3%. The cell death in the series on A431 cells [4] (setting [6]) was 37.9±2.3%. The “modes of cell death” value in the series on A431 cells [4] (setting [7]) was “a further increase in late apoptosis and necrosis with little effect on apoptotic cell death”. In addition, in the series with A431 cells [4], the “potentiating effect” value is given as “mild potentiating effect”.

For `CC1(C)CC(O)CC(C)(C)N1[O]` [TEMPOL, 4-hydroxy-2,2,6,6-tetra methylpiperidine 1-oxyl], the “MitoSOX fluorescence, percentage” value was 99.4±5.44% in the series with A431 cells [1] (MAL 1 mM + co-treatment 10 μM); 226.5±19.4% with A431 cells [1] (MAL 1 mM + co-treatment 100 μM); 253.3±6.3% and 316.8±1.6% in the series with A431 cells [1] (setting [5]). Further, the “PpIX accumulation, percentage” value in the series on A431 cells [2] (10 μM + MAL 1 mM, 3 hours) is recorded as 109.0±2.7%; in the series on A431 cells [2] (100 μM + MAL 1 mM, 3 hours), 141.2±4.2%; in the series with A431 cells [2] (1000 μM + MAL 1 mM, 3 hours) it was 209.2±5.1%. For the same molecule, the “effect on PpIX fluorescence” value in the series with A431 cells [2] (3 h) was “increased PpIX fluorescence slightly, but this was not statistically significant”. The “effect on PpIX accumulation” value in the series on A431 cells [2] (0.1 mM and 1 mM + 1 mM MAL, 3 h) is reported as “significantly increased PpIX accumulation further”. Moreover, the “increase in PpIX fluorescence” value in the series on A431 cells [2] (3 h) is on record as roughly 2 fold. Further, the “cell viability, percentage” value in the series with A431 cells [3] (0.25 mM with 1 mM MAL, 3 hours) was 99.3±4.4%; with A431 cells [3] (0.5 mM with 1 mM MAL, 3 hours), 102.0±3.6%; in the series on A431 cells [3] (1 mM with 1 mM MAL, 3 hours), 99.8±2.9%; with A431 cells [3] (2 mM with 1 mM MAL, 3 hours), 104.2±3.3%; in the series with A431 cells [3] (5 mM with 1 mM MAL, 3 hours), 116.2±2.7%; in the series on A431 cells [3] (10 mM with 1 mM MAL, 3 hours) it was 77.8±4.7%. Also, the “modes of cell death” value with A431 cells [4] (1 mM MAL + TEMPOL, dependent on concentration + irradiation, FIG. 37) was “an increase in apoptosis and late apoptosis, with smaller increases in necrosis also observed”; with A431 cells [4] (setting [7]), “an increase in late apoptotic and necrotic cell death; also recorded: a further increase in late apoptosis and necrosis with little effect on apoptotic cell death”. Besides, the cell death with A431 cells [4] (1 mM MAL + co-treatment 10 μM) was 40.5±4.1%; in the series with A431 cells [4] (1 mM MAL + co-treatment 100 μM), 48.5±7.4%; in the series with A431 cells [4] (setting [6]) it was 50.8±6.8% and 69.3±3.1%. Besides, in the series on A431 cells [4], the “potentiating effect” value is on record as “more robust potentiating effect”.
